Reference: patent US20100055093A1, “PAN-CELL SURFACE RECEPTOR-SPECIFIC THERAPEUTICS” (RECEPTOR BIOLOGIX INC., priority 2006, published 2010)
Entries after “also recorded” stand apart in the source; their conditions may differ. Marks after values point to notes of the source that are not given here.

What was measured:
A431 s.c. tumor = assay: Therapeutic evaluation in A431 s.c. human tumor xenograft model; type: in vivo, nude mice
Description: Mice were obtained from the commercial suppliers (Harlan, UK). The mice were 4-6 weeks old at the start of the study. […] The room was air-conditioned by a system designed to maintain an air temperature range of 23±2° C. Mice were housed in groups of 2 or 5 during the procedure in plastic cages (Techniplast UK) with irradiated bedding and provided with both nesting materials and environmental enrichment. […] Tumor dimensions were recorded (calliper measurement of length and width and tumor cross-sectional area and volume calculated) three times weekly and body weight measured weekly. Each mouse remained in the study until terminated, or until necessitate removal of that mouse from the study. Animals were terminated if the tumor size becomes excessive or any adverse effects are noted. At termination the mice were anaesthetized (Hypnorm/Hynovel) and 1 ml blood removed by cardiac puncture, processed for plasma, frozen for both the pilot and therapeutic study. The mice were then terminated by an approved S1 method. For the therapeutic study, the tumors were excised, weighed, measured and fixed in formalin. Body weight data, tumor growth and final tumor weight were recorded and reported in spreadsheet and graphical format. Statistical analysis was performed if appropriate using Minitab. […] An extra group for the therapeutic study was added by PRECOS as below. Group 9: 30 mg/kg human IgG i.p. 3 times weekly. Iressa was prepared by PRECOS in 10% DMSO & 5% Cremaphor in PBS. Tumors were initiated with 2×10^6 cells per mouse for the therapeutic study.

A431 tumor bearing mice = assay: Pilot toxicity study in A431 tumor bearing mice; type: in vivo, nude mice
Description: Mice were obtained from the commercial suppliers (Harlan, UK). The mice were 4-6 weeks old at the start of the study. […] The room was air-conditioned by a system designed to maintain an air temperature range of 23±2° C. Mice were housed in groups of 2 or 5 during the procedure in plastic cages (Techniplast UK) with irradiated bedding and provided with both nesting materials and environmental enrichment.
Cells were injected subcutaneously into mice at 1×10^7 cells in a volume of 100 μl.
For the pilot toxicity study, mice were allocated to their treatment groups and treatment began on day 5 for 2 weeks in a dosing volume of 150 μl per injection. […] Tumor dimensions were recorded (calliper measurement of length and width and tumor cross-sectional area and volume calculated) three times weekly and body weight measured weekly.
Each mouse remained in the study until terminated, or until necessitate removal of that mouse from the study. Animals were terminated if the tumor size becomes excessive or any adverse effects are noted. At termination the mice were anaesthetized (Hypnorm/Hynovel) and ˜1 ml blood removed by cardiac puncture, processed for plasma, frozen for both the pilot and therapeutic study. The mice were then terminated by an approved S1 method.
Pilot toxicity study was terminated after 12 days of dosing in order to collect plasma samples 3 hours after dosing. […]

HER2 = biological target: T1, HER2 (Homo sapiens, UniProt P04626); assay: ELISA-based HER receptor phosphorylation assay, HER2; type: cell-based; conditions: MCF7/HER2 cells, HRG, 600 nM protein
T1 construct: endogenous in cells
Description: (§1) Phosphorylation of HER receptors was assessed in an ELISA-based HER Receptor phosphorylation assay. Various cells (A431, MCF7, SK-BR3, SK-OV3, MCF7/HER2) were serum-starved in serum free medium for about 24 hr.
(§2) Cells were lysed on ice for 15 min and cell lysate were applied to a 96-well plate pre-coated with the respective receptor-specific capture antibodies (antibodies were purchased from R & D System) by manufacture recommended concentrations (0.4 to 4 ug/ml) and condition (in PBS, room temperature, overnight). Cell lysates were incubated with the capture Ab plate for 3 hrs at room temperature. Plates were washed 3× with PBST buffer. Anti-phosphotyrosine antibody clone 4G10 HRP-conjugated (Upstate) were diluted at 1:1000 in 1% of BSA.PBS and added to the plates, 100 μl/well for 1 hr to detect specifically HER receptors phosphorylated on tyrosine. After 3× PBST wash, the plates were developed by adding 100 μl of substrate solution (TMB, Sigma) and stopped by 50 μl of SDS stop solution. The optical density was determined by microplate reader at 650 nm (Molecular Devices, VERSAmax).

HER3 = biological target: T2, HER3 (Homo sapiens, UniProt P21860); assay: ELISA-based HER receptor phosphorylation assay, HER3; type: cell-based; conditions: HRG; for maximal inhibition of HER3 phosphorylation: 600 nM protein; for IC50: read-out: IC50, inhibition of HER3 phosphorylation
T2 construct: endogenous in cells
Description: as §1, §2

heregulin (HRG) = assay: 125I-HRG binding with BS3 cross-linking and SDS-PAGE; conditions: for binding of 125I-HRG: 5 nM 125I-HRG, BS3 cross-linking, SDS-PAGE
Description: 1 mM of the BS3 crosslinker was added at the end of the binding assay to cross-link the bound molecules. Binding reactions were separated on an SDS-PAGE gel.
(§3) Western blots were probed with anti-His antibody to compare protein levels.

MCF7 cells = assay: Ligand-stimulated cell proliferation, Alamar Blue; type: cell-based; conditions: MCF7 stimulated by HRGβ, at 1 μm
Description: Cell lines MCF7, ZR75-1, ME180 were purchased from ATCC and kept in 10% of FBS DMEM. Cells were seeded at 2000 per well in 96-well plate in 1% FBS supplemented DMEM. After 2-3 hr of seeding, increasing concentrations of candidate HER ECD derivatives were added to the culture in the present of ligands (EGF or HRGβ). Cells were incubated at 37° C. for about 72 hr. Cells relative density were measured by Alamar Blue method. Alamar Blue (Sigma) was prepared in PBS at concentration of 4 uM, added to the microplate at 1/10 volume of culture medium (final concentration 0.4 uM) and plates returned to the incubator. Fluorescence was read at Ex.=530 nm/Em.=590 nm after 2-4 hours at 37° C.

EGF = EGF (Homo sapiens, UniProt P01133); assay: 125I-EGF binding with BS3 cross-linking and SDS-PAGE; conditions: supernatant of transfected 293T cells, 5 nM 125I-EGF, BS3 cross-linking, SDS-PAGE
Description: BS^3, a chemical crosslinker (Pierce) was added at the end of the binding assay to cross-link the bound molecules. Samples were separated on an SDS-PAGE gel and exposed to a film for detection.
as §3

[1] = biological target: the molecule itself; assay: self-association by size exclusion chromatography (apparent over calculated molecular weight)
Description: This methodology permits simplified analysis of the ability of receptor ectodomains to associate as either homodimers or heterodimers. To perform molecular size exlusion analysis, eluted molecules were compared to reference standards. […] Smaller volumes elute in the retained volume of the column, while larger molecules elute in smaller volumes according to their increasing molecular mass.
Molecular size exclusion analysis was performed using a A TSK3000 size exclusion column (Tosoh Bioscience, Montgomeryville, Pa.) equilibrated with PBS at a flow rate of 0.7 ml/min. Gel filtration standards (BioRad, Hercules, Calif.) were used to calibrate the column. Their elution volumes and molecular weights were plotted. Elution volumes were determined for each unknown by injection of 30 μg of each molecule in PBS and their apparent molecular weights calculated. Flow was maintained over the column between injections. Molecular weights were determined using a Standard curve for molecular weight standards.

[2] = biological target: T3, neuregulin-1 beta 1 (NRG1β1) (human, UniProt Q02297-6 177-241, limits assumed); assay: 125I-HRG (5 nM) cross-linking (BS3), normalised by anti-HER3 Western blot densitometry
T3 construct: also called HRG; heregulin
T3 sequence (looked up): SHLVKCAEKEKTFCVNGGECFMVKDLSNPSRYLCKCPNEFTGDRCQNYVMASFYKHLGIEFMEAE
Description: 1 mM of the BS₃ crosslinker was added at the end of the binding assay to cross-link the bound molecules. Binding reactions were separated on an SDS-PAGE gel. The protein gel was dried and exposed to a film for 2 and 6 hours.

[3] = Group 5, 38 mg/kg Iressa, group mean
[4] = Group 6, 75 mg/kg Iressa, group mean

Sequence of EGF (P01133 971-1023 limits assumed): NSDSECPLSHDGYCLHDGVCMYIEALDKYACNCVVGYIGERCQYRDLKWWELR

## COc1cc2ncnc(Nc3ccc(F)c(Cl)c3)c2cc1OCCCN1CCOCC1 [Iressa, Gefitinib]
A431 s.c. tumor; 38 mg/kg Iressa (Group 5)
  tumor growth rate in comparison to the vehicle group: did not
A431 s.c. tumor; 75 mg/kg Iressa (Group 6)
  reduction of final tumor weight: 69%
A431 s.c. tumor; 75 mg/kg Iressa i.p. days 1-5 cycled weekly (Group 6)
  tumor growth rate in comparison to the vehicle group: significantly decreased
A431 s.c. tumor; [3]
  Tumor volume (mm^3) Day 7: 51.2 mm^3
  Tumor volume (mm^3) Day 10: 79.4 mm^3
  Tumor volume (mm^3) Day 12: 108.8 mm^3
  Tumor volume (mm^3) Day 14: 152.6 mm^3
  Tumor volume (mm^3) Day 17: 220.6 mm^3
  Tumor volume (mm^3) Day 19: 259.6 mm^3
  Tumor volume (mm^3) Day 21: 396.9 mm^3
  Tumor volume (mm^3) Day 24: 477.0 mm^3
  Tumor volume (mm^3) Day 25: 491.1 mm^3
  Tumor volume (mm^3) Day 26: 510.1 mm^3
A431 s.c. tumor; Group 5, 38 mg/kg Iressa, final tumor weight, group mean
  Tumor weight: 0.267 g
A431 s.c. tumor; [4]
  Tumor volume (mm^3) Day 7: 48.6 mm^3
  Tumor volume (mm^3) Day 10: 72.5 mm^3
  Tumor volume (mm^3) Day 12: 87.1 mm^3
  Tumor volume (mm^3) Day 14: 104.3 mm^3
  Tumor volume (mm^3) Day 17: 123.1 mm^3
  Tumor volume (mm^3) Day 19: 112.1# mm^3
  Tumor volume (mm^3) Day 21: 150.1# mm^3
  Tumor volume (mm^3) Day 24: 180.5# mm^3
  Tumor volume (mm^3) Day 25: 178.6# mm^3
  Tumor volume (mm^3) Day 26: 181.9# mm^3
A431 s.c. tumor; Group 6, 75 mg/kg Iressa, final tumor weight, group mean
  Tumor weight (g): 0.095# g
A431 tumor bearing mice; Iressa treatment groups (groups 2 and 3)
  tumor size prior to termination: inhibition of tumor size
A431 tumor bearing mice; i.p., 30 mg/kg RB200h, 75 mg/kg IRESSA, or 10 mg/kg RB200h with 38 mg/kg IRESSA, 12 days of dosing
  adverse effects: No adverse effects

## HF210T: truncated HER2 ECD, residues 1-573, SEQ ID NO:16
HER2
  maximal inhibition of HER2 phosphorylation: about 55%
HER3; MCF7/HER2 cells
  maximal inhibition of HER3 phosphorylation: about 55%

## HF220T: truncated HER2 ECD, residues 1-508, SEQ ID NO:14
HER2
  maximal inhibition of HER2 phosphorylation: about 35%
HER3; MCF7/HER2 cells
  maximal inhibition of HER3 phosphorylation: about 35%

## HF300T: full-length HER3 ECD, residues 1-621, SEQ ID NO:26
Heregulin (HRG); normalized by anti-HER3 Western blot densitometry
  binding of HRG as compared to the other derivatives tested: about 10%
HER3; MCF7 cells
  maximal inhibition of HER3 phosphorylation: about 38%
  IC50: 48 nM
HER3; SK-BR3 cells
  maximal inhibition of HER3 phosphorylation: about 55%

## HF310T: truncated HER3 ECD, residues 1-500, SEQ ID NO:20
Heregulin (HRG)
  binding of 125I-HRG: equivalent binding
HER3; MCF7 cells
  maximal inhibition of HER3 phosphorylation: about 78%
  IC50: 39 nM
HER3; SK-BR3 cells
  maximal inhibition of HER3 phosphorylation: about 75%
MCF7 cells
  inhibition of proliferation: about 95%

## HFD200: full-length HER2 ECD fused to Fc, SEQ ID NO:42
EGF
  binding of 125I-EGF: did not show any detectable
EGF; listed as HER2-650/Fc
  binding of 125I-EGF: no binding
Heregulin (HRG)
  binding of 125I-HRG: did not show any detectable

## HFD300: full-length HER3 ECD (1-621) fused to Fc, SEQ ID NO:46; homodimer
Heregulin (HRG)
  binding of 125I-HRG: equivalent binding; also recorded: bound
Heregulin (HRG); listed as HER3-621/Fc
  binding of 125I-HRG: binds

## HFD310: truncated HER3 ECD (1-500) fused to Fc, SEQ ID NO:44
Heregulin (HRG)
  binding of 125I-HRG: equivalent binding

## HFD400: full-length HER4 ECD fused to Fc, SEQ ID NO:48
EGF
  binding of 125I-EGF: no binding
Heregulin (HRG)
  binding of 125I-HRG: bound
Heregulin (HRG); listed as HER4-650/Fc
  binding of 125I-HRG: binds

B1: HF410T (HER4-485) (receptor)
chain: QSVCAGTENKLSSLSDLEQQYRALRKYYENCEVVMGNLEITSIEHNRDLSFLRSVREVTGYVLVALNQFRYLPLENLRIIRGTKLYEDRYALAIFLNYRKDGNFGLQELGLKNLTEILNGGVYVDQNKFLCYADTIHWQDIVRNPWPSNLTLVSTNGSSGCGRCHKSCTGRCWGPTENHCQTLTRTVCAEQCDGRCYGPYVSDCCHRECAGGCSGPKDTDCFACMNFNDSGACVTQCPQTFVYNPTTFQLEHNFNAKYTYGAFCVKKCPHNFVVDSSSCVRACPSSKMEVEENGIKMCKPCTDICPKACDGIGTGSLMSAQTVDSSNIDKFINCTKINGNLIFLVTGIHGDPYNAIEAIDPEKLNVFRTVREITGFLNIQSWPPNMTDFSVFSNLVTIGGRVLYSGLSLLILKQQGITSLQFQSLKEISAGNIYITDNSNLCYYHTINWTTLFSTINQRILESRGPFEQKLISEEDLNMHTGHHHHHH
[1]
  M. Wt. (ap):M. Wt.: 1.98

B2: HER3-621, full-length HER3 ECD (receptor)
chain: SEVGNSQAVCPGTLNGLSVTGDAENQYQTLYKLYERCEVVMGNLEIVLTGHNADLSFLQWIREVTGYVLVAMNEFSTLPLPNLRVVRGTQVYDGKFAIFVMLNYNTNSSHALRQLRLTQLTEILSGGVYIEKNDKLCHMDTIDWRDIVRDRDAEIVVKDNGRSCPPCHEVCKGRCWGPGSEDCQTLTKTICAPQCNGHCFGPNPNQCCHDECAGGCSGPQDTDCFACRHFNDSGACVPRCPQPLVYNKLTFQLEPNPHTKYQYGGVCVASCPHNFVVDQTSCVRACPPDKMEVDKNGLKMCEPCGGLCPKACEGTGSGSRFQTVDSSNIDGFVNCTKILGNLDFLITGLNGDPWHKIPALDPEKLNVFRTVREITGYLNIQSWPPHMHNFSVFSNLTTIGGRSLYNRGFSLLIMKNLNVTSLGFRSLKEISAGRIYISANRQLCYHHSLNWTKVLRGPTEERLDIKHNRPRRDCVAEGKVCDPLCSSGGCWGPGPGQCLSCRNYSRGGVCVTHCNFLNGEPREFAHEAECFSCHPECQPMGGTATCNGSGSDTCAQCAHFRDGPHCVSSCPHGVLGAKGPIYKYPDVQNECRPCHENCTQGCKGPELQDCLGQTLVLIGKTLESRGPFEQKLISEEDLNMHTGHHHHHH
notes: also called HF300; HF300T
[2]
  binding relative to the other derivatives tested: ~10%
[1]
  M. Wt. (ap):M. Wt.: 2.66
